Data on eleven compounds can be found in ChEMBL document CHEMBL1201862, “PubChem BioAssay data set” (2004).

The structures appear in SMILES notation. Values joined by “and” are separate entries in the source; they are usually repeats but may differ in a detail not shown here. Identical values can stand only once.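 All cell lines were grown in 96-well plates and treated with compound for 48 hours. GI50 = concentration required for 50% inhibition of growth.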 Active and inactive are the calls of the source. No stated cut-off is given here; in the data, active = GI50 up to about 1.1 µM and inactive = higher. Bounds are passed on as bounds.

Test systems include OVCAR-8; PC-3; TK-10; MDA-MB-435; DU-145; K562; U-251; RXF 393; Malme-3M; NCI-H460; OVCAR-4; SNB-19; SNB-75; UO-31; COLO 205; CCRF-CEM; CAKI-1; HCC 2998; SK-MEL-5; SK-OV-3.
Holding throughout (test): NCI-60 cell line screen, 48 h

`COc1ccc(-c2cc(O)c3nc4ccccc4n3c2)cc1`: the GI50 in the assay with OVCAR-8, in the assay with PC-3, in the assay with TK-10, with MDA-MB-435, with DU-145 and in the assay on K562 was > 100 µM (inactive) each time. Besides, the GI50 in the assay with U-251, in the assay on RXF 393, with Malme-3M, in the assay with NCI-H460, with OVCAR-4 and in the assay with SNB-19 was > 100 µM (inactive) in each case. Besides, the GI50 with SNB-75, in the assay with UO-31, in the assay on COLO 205, in the assay with CCRF-CEM and in the assay on CAKI-1 was > 100 µM (inactive) in each case.

Regarding `N#Cc1ccccc1NC(=O)/C(=N\NC(=O)c1ccncc1)C(c1cnc2ccc([N+](=O)[O-])cc2n1)[N+](=O)[O-]` (configuration not stated), the GI50 in the assay with OVCAR-8 is > 100 µM (inactive); in the assay on PC-3, > 100 µM (inactive); with TK-10, > 100 µM (inactive); in the assay with MDA-MB-435 it was 74.8 µM (inactive); in the assay with HCC 2998, > 100 µM (inactive); in the assay on U-251, > 100 µM (inactive). In addition, the GI50 in the assay on RXF 393 is > 100 µM (inactive); with Malme-3M, > 100 µM (inactive); in the assay on SK-MEL-5, 63.7 µM (inactive); in the assay with NCI-H460 it was 64.6 µM (inactive); in the assay on OVCAR-4, > 100 µM (inactive); in the assay with SK-OV-3, > 100 µM (inactive). Besides, the GI50 is > 100 µM (inactive) in the assay with SNB-75, 32.1 µM (inactive) in the assay with UO-31, 56.4 µM (inactive) with CCRF-CEM and > 100 µM (inactive) with CAKI-1.

As to `O=[N+]([O-])c1ccccc1CSc1nc(O)c2nc[nH]c2n1`, the GI50 is > 100 µM (inactive) in the assay on OVCAR-8; 79.8 µM (inactive) in the assay with PC-3; > 100 µM (inactive) and 79.8 µM (inactive) in the assay with TK-10; > 100 µM (inactive) and 55 µM (inactive) with MDA-MB-435; > 100 µM (inactive) in the assay with DU-145; > 100 µM (inactive) in the assay on K562. Also, the GI50 in the assay with U-251 was > 100 µM (inactive) and 96.4 µM (inactive); in the assay with RXF 393, > 100 µM (inactive); in the assay with Malme-3M, > 100 µM (inactive); in the assay with SK-MEL-5, > 100 µM (inactive); in the assay on NCI-H460, > 100 µM (inactive); with SK-OV-3, 63.8 µM (inactive). Besides, the GI50 in the assay on SNB-19 is 59.8 µM (inactive); in the assay on COLO 205, > 100 µM (inactive); in the assay on CAKI-1 it was 90.4 µM (inactive).

Take `COc1c(-c2nc3ccc(N4CCN(C)CC4)nc3[nH]2)cc(OC)c2[nH]c(CO)nc12`: the GI50 in the assay with OVCAR-8 was > 100 µM (inactive); in the assay on TK-10 it was > 100 µM (inactive); with MDA-MB-435 it was 56.8 µM (inactive); in the assay with HCC 2998, 38.2 µM (inactive); in the assay on DU-145, > 100 µM (inactive); with K562 it was 58.1 µM (inactive). For the same compound, the GI50 in the assay on U-251 is 29.6 µM (inactive); in the assay with RXF 393, > 100 µM (inactive); with Malme-3M, > 100 µM (inactive); in the assay with SK-MEL-5 it was > 100 µM (inactive); in the assay with NCI-H460, > 100 µM (inactive); in the assay with OVCAR-4, 70 µM (inactive). Also, the GI50 in the assay on SK-OV-3 is > 100 µM (inactive); in the assay on SNB-19, 42.6 µM (inactive); in the assay on SNB-75, 95.5 µM (inactive); in the assay with UO-31, > 100 µM (inactive); in the assay on COLO 205, > 100 µM (inactive); in the assay on CAKI-1, > 100 µM (inactive).

Turning to `Cc1ccc(Nc2nc(=O)[nH]c(=O)[nH]2)cc1N=[N+]=[N-]`, the GI50 in the assay on OVCAR-8, in the assay with TK-10, in the assay with MDA-MB-435, with HCC 2998, in the assay on DU-145 and in the assay on K562 was > 100 µM (inactive) throughout. Further, the GI50 in the assay on RXF 393, in the assay on Malme-3M, in the assay with SK-MEL-5, in the assay on OVCAR-4, in the assay with SK-OV-3 and with SNB-19 was > 100 µM (inactive) each time. For the same compound, the GI50 with SNB-75, in the assay with UO-31, with COLO 205, in the assay on CCRF-CEM and in the assay with CAKI-1 was > 100 µM (inactive) throughout.

For the compound `Cc1ccc2nc(-c3ccc(N)c(I)c3)sc2c1`, the GI50 is 67.5 µM (inactive) in the assay on OVCAR-8; 8.49 µM (inactive) with PC-3; 0.39 µM (active) with TK-10; 19.2 µM (inactive) in the assay on MDA-MB-435; 6.75 µM (inactive) in the assay on HCC 2998; 21.3 µM (inactive) in the assay with K562. Besides, the GI50 was 26.1 µM (inactive) in the assay on U-251; 24 µM (inactive) with RXF 393; 36.1 µM (inactive) in the assay on Malme-3M; 29.4 µM (inactive) in the assay on SK-MEL-5; 18.2 µM (inactive) in the assay with NCI-H460; 2.09 µM (inactive) with OVCAR-4. Also, the GI50 was 38.2 µM (inactive) in the assay on SK-OV-3; 19 µM (inactive) in the assay with SNB-19; 41.5 µM (inactive) in the assay on SNB-75; 7.06 µM (inactive) in the assay on UO-31; 17.1 µM (inactive) in the assay on COLO 205; 6.21 µM (inactive) in the assay with CCRF-CEM. In addition, the GI50 in the assay on CAKI-1 was > 100 µM (inactive).

For `Clc1nc(Cl)c(Cl)c(-c2ccccc2)n1`, the GI50 in the assay with OVCAR-8 is 10.4 µM (inactive); in the assay on PC-3, 10.5 µM (inactive); in the assay on TK-10, 18.8 µM (inactive); in the assay with MDA-MB-435 it was 14.6 µM (inactive); with HCC 2998 it was 22.2 µM (inactive); in the assay with K562, 1.44 µM (inactive). For the same compound, the GI50 with U-251 is 15.1 µM (inactive); in the assay with RXF 393 it was 13.6 µM (inactive); in the assay on Malme-3M it was 5.61 µM (inactive); in the assay with SK-MEL-5 it was 2.43 µM (inactive); in the assay with NCI-H460 it was 9.46 µM (inactive); with OVCAR-4, 4.85 µM (inactive). Besides, the GI50 was 13.1 µM (inactive) with SK-OV-3; 15.6 µM (inactive) with SNB-19; 2.26 µM (inactive) in the assay with SNB-75; 18.1 µM (inactive) in the assay with UO-31; 0.74 µM (active) in the assay on CCRF-CEM.

Regarding `COc1ccc(/C=N\O[Si](C)(C)C(C)(C)C)cc1O[Si](C)(C)C(C)(C)C`, the GI50 in the assay with OVCAR-8 is 22.8 µM (inactive); in the assay with TK-10, 20.4 µM (inactive); in the assay with HCC 2998, 17.3 µM (inactive); with K562, 18.3 µM (inactive); in the assay with U-251 it was 19.7 µM (inactive); in the assay on RXF 393, 14.3 µM (inactive). Also, the GI50 in the assay with Malme-3M was 17.6 µM (inactive); with SK-MEL-5 it was 17.3 µM (inactive); with NCI-H460, 20.6 µM (inactive); in the assay on OVCAR-4, 19 µM (inactive); in the assay with SK-OV-3, 30.6 µM (inactive); in the assay with SNB-19, 18.9 µM (inactive). Moreover, the GI50 with SNB-75 was 22.3 µM (inactive); in the assay with UO-31 it was 14.7 µM (inactive); in the assay on COLO 205, 22.5 µM (inactive); in the assay on CCRF-CEM it was 21.6 µM (inactive); in the assay with CAKI-1 it was 25.1 µM (inactive).

Consider `Sc1nnc(COc2ccc(Cl)cc2)[nH]1`, for which the GI50 in the assay on OVCAR-8, in the assay on TK-10, in the assay on HCC 2998, with K562, with U-251 and in the assay with RXF 393 was > 100 µM (inactive) throughout. Besides, the GI50 in the assay on Malme-3M, in the assay on SK-MEL-5, with NCI-H460, with OVCAR-4, in the assay on SK-OV-3 and with SNB-19 was > 100 µM (inactive) each time. Further, the GI50 in the assay with SNB-75, with UO-31, in the assay with COLO 205, with CCRF-CEM and with CAKI-1 was > 100 µM (inactive) throughout.

Take `CCOP(=O)(/C=C\n1ccc(=O)[nH]c1=O)OCC`: the GI50 with OVCAR-8, with PC-3, in the assay on TK-10, in the assay on MDA-MB-435, with DU-145 and with K562 was > 100 µM (inactive) in each case. The GI50 with U-251 was > 100 µM (inactive); in the assay on RXF 393, > 100 µM (inactive); with SK-MEL-5 it was > 100 µM (inactive); in the assay on NCI-H460 it was > 10 µM (inactive); in the assay on OVCAR-4, > 100 µM (inactive); with SK-OV-3, > 100 µM (inactive). The GI50 with SNB-19, in the assay on SNB-75, with COLO 205, in the assay on CCRF-CEM and in the assay with CAKI-1 was > 100 µM (inactive) in each case.

In the case of `COc1cc(C(=O)Nc2cccc3ccccc23)c(Br)c(OC)c1OC`, the GI50 with OVCAR-8 was 0.0416 µM (active); in the assay with TK-10, > 100 µM (inactive); in the assay with HCC 2998 it was > 100 µM (inactive); in the assay on K562, 43.5 µM (inactive); in the assay on U-251, > 100 µM (inactive); with RXF 393, 42.7 µM (inactive). The GI50 in the assay with Malme-3M is 67.6 µM (inactive); with SK-MEL-5, 41.1 µM (inactive); in the assay with NCI-H460, 64.9 µM (inactive); with OVCAR-4, 16.5 µM (inactive); in the assay on SK-OV-3, > 100 µM (inactive); in the assay with SNB-19, > 100 µM (inactive). Further, the GI50 is 62.2 µM (inactive) with SNB-75; 31.4 µM (inactive) in the assay on UO-31; > 100 µM (inactive) in the assay with COLO 205; 33.9 µM (inactive) in the assay with CCRF-CEM; > 100 µM (inactive) in the assay on CAKI-1.
